Results: ChEMBL document CHEMBL1150899, “Novel quinone methides from Salacia kraussii with in vitro antimalarial activity” (J Nat Prod, 1998)
≈ marks a conversion by molar mass, not a printed value.

How the values were obtained:
Plasmodium falciparum [1] = assay: Antiplasmodial activity against chloroquine-sensitive Plasmodium falciparum NF54 infected human erythrocytes as [3H]hypoxanthine uptake; format: functional, organism-based
Plasmodium falciparum [2] = assay: Antiplasmodial activity against chloroquine-resistant Plasmodium falciparum K1 infected human erythrocytes as [3H]hypoxanthine uptake; format: functional, organism-based
HT-29 = assay: Cytotoxicity against human HT-29 cells after 72 hrs by Alamar blue assay; format: functional, cell-based; settings: HT-29, 72 h
Mus musculus = assay: Toxicity against Plasmodium berghei-infected mice (Mus musculus) assessed as mortality at 10 mg/kg, subcutaneously after 1 day; format: organism-based; parameters: dose 10 mg/kg, route subcutaneous; settings: in vivo, sc, 24 h

SMILES | IC50 (Plasmodium falciparum [1]) [µg/mL] | IC50 (Plasmodium falciparum [2]) [µg/mL] | IC50 (HT-29) [µg/mL] | Activity (Mus musculus)
C=C1CC[C@]2(C=O)CC[C@]3(C)C4=CC=C5C(=CC(=O)C(O)=C5C)[C@]4(C)CC[C@@]3(C)[C@@H]2C1 | 0.0799 (≈ 0.191 µM) | 0.094 (≈ 0.225 µM) | – | –
C=C1CC[C@]2(C(=O)OC)CC[C@]3(C)C4=CC=C5C(=CC(=O)C(O)=C5C)[C@]4(C)CC[C@@]3(C)[C@@H]2C1 | 0.0371 (≈ 0.0827 µM) | 0.0276 (≈ 0.0615 µM) | 2.38 (≈ 5.31 µM) | Toxic
C=C1CC[C@]2(CO)CC[C@]3(C)C4=CC=C5C(=CC(=O)C(O)=C5C)[C@]4(C)CC[C@@]3(C)[C@@H]2C1 | 0.14 (≈ 0.333 µM) | 0.114 (≈ 0.272 µM) | 6.06 (≈ 14.4 µM) | –
CC1=C(O)C(=O)C=C2C1=CC=C1[C@@]2(C)CC[C@@]2(C)[C@@H]3C[C@](C)(C(=O)O)CC[C@]3(C)CC[C@]12C [CELASTROL] | 0.254 (≈ 0.564 µM) | 0.181 (≈ 0.401 µM) | 1.3 (≈ 2.88 µM) | –
CCN(CC)CCCC(C)Nc1ccnc2cc(Cl)ccc12 (centres undefined) [CHLOROQUINE] | – | – | 58 (≈ 181 µM) | –
CC1=C(O)C(=O)C=C2C1=CC=C1[C@@]2(C)CC[C@@]2(C)[C@@H]3C[C@H](CO)CC[C@]3(C)CC[C@]12C [ISOIGUESTEROL] | 0.0541 (≈ 0.128 µM) | 0.0229 (≈ 0.0542 µM) | 2.43 (≈ 5.75 µM) | –
COC(=O)[C@]1(C)CC[C@]2(C)CC[C@]3(C)C4=CC=C5C(=CC(=O)C(O)=C5C)[C@]4(C)CC[C@@]3(C)[C@@H]2C1 [PRISTIMERIN] | 0.271 (≈ 0.583 µM) | 0.19 (≈ 0.41 µM) | 4.6 (≈ 9.9 µM) | –
